From publication PMC8123931 (Nature chemical biology, 2020)
Like-named read-outs stand apart in the source and are kept apart here.

Legend:
EGFR L858R/T790M/C797S [1] = target: T1, EGFR L858R/T790M/C797S (Homo sapiens, UniProt P00533, C797S/L858R/T790M); assay: MaMTH-DS assay and screen, EGFR L858R/T790M/C797S bait with Shc1 prey; format: cell-based
EGFR L858R/T790M/C797S [2] = target: T1, EGFR L858R/T790M/C797S; assay: In vitro kinase assay, recombinant kinase domain; format: biochemical
EGFR ex19del/T790M/C797S = EGFR ex19del/T790M/C797S (Homo sapiens, UniProt P00533, C797S/DEL746-750/T790M); assay: In vitro kinase assay, recombinant kinase domain; format: biochemical
[3] = target: purified pig brain tubulin (Sus scrofa, UniProt P02550+P02554); assay: In vitro microtubule dynamics assay with mCherry-EB3; format: biochemical
Chain of purified pig brain tubulin (P02550 whole entry): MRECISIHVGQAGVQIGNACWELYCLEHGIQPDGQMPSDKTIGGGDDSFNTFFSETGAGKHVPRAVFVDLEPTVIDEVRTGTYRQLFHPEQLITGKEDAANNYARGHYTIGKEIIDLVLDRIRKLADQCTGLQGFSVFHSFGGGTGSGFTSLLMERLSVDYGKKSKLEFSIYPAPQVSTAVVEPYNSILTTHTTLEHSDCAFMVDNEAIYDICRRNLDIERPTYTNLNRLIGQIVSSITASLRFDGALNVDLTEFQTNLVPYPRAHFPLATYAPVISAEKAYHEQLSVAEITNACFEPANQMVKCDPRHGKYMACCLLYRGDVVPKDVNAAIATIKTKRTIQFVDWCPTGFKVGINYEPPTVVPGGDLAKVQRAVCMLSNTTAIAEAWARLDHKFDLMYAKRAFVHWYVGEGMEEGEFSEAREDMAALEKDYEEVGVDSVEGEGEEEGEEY
Chain of purified pig brain tubulin (P02554 whole entry): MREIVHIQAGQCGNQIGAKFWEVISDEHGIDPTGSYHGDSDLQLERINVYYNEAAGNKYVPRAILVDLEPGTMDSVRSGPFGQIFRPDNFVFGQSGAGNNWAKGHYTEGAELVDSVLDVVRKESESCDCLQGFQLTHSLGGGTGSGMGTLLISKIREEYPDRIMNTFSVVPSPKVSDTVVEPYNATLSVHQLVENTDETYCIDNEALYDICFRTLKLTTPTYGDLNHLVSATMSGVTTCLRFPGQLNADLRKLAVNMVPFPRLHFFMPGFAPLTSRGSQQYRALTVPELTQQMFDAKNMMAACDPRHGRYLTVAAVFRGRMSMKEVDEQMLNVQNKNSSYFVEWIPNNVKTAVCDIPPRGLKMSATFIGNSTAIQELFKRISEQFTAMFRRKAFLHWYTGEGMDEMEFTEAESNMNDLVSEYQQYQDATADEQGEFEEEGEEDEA

EGFR L858R/T790M/C797S [4] = target: T1, EGFR L858R/T790M/C797S; assay: MaMTH-DS assay, EGFR L858R/T790M/C797S bait with CrkII and Hsp90; format: cell-based

CCN(CC)c1ccc2cc(-c3nc4ccccc4o3)c(=O)oc2c1 [EMI1, 3-(1,3-benzoxazol-2-yl)-7-(diethylamino)-2H-chromen-2-one]
interaction of Shc1 with EGFR L858R/T790M/C797S (in words) (EGFR L858R/T790M/C797S [1]): potently reducing the interaction of EGFR triple mutant with Shc1
interaction of Shc1 with EGFR L858R/T790M/C797S (in words) (EGFR L858R/T790M/C797S [1]; listed as ChemBridge compound 5213777): robust, dose-dependent inhibition
inhibition of kinase activity of EGFR triple-mutant protein (EGFR L858R/T790M/C797S [2]): no inhibition of the kinase activity
inhibition of kinase activity of EGFR triple-mutant protein (EGFR ex19del/T790M/C797S): no inhibition of the kinase activity
microtubule dynamics (growth rate, time, catastrophe frequency) [3]: reduced microtubule growth rate and time, while increasing catastrophe frequency
interaction of CrkII with EGFR L858R/T790M/C797S (EGFR L858R/T790M/C797S [4]): inhibited interaction of both proteins with EGFR at a level similar to that observed with Shc1
interaction of Hsp90 with EGFR L858R/T790M/C797S (EGFR L858R/T790M/C797S [4]): inhibited interaction of both proteins with EGFR at a level similar to that observed with Shc1
